Results from ChEMBL document CHEMBL1136961, “Substituted tetrahydrocarbazoles with potent activity against human papillomaviruses” (Bioorg Med Chem Lett, 2009).

Legend:
[1] = test system: Human papillomavirus type 16; assay: Antiviral activity against HPV-16 infected in human W12-20850 cells after 4 days by non-radioactive hybrid capture technique; type: functional, organism-based, Human papillomavirus 16
[2] = (§1) Cytotoxicity against human HFF cells; type: cell-based; settings: HFF cells
HFF = assay: as §1; type: cell-based; settings: hff
[3] = Selectivity index, ratio of cytotoxicity against human keratinocytes to antiviral activity against HPV-16; type: toxicity; settings: read-out: Selectivity Index
[4] = Selectivity index, ratio of cytotoxicity against african green monkey Vero cells to antiviral activity against HPV-16; type: toxicity, cell-based; settings: read-out: Selectivity Index
[5] = Half life in rat at 10 mg/kg administered as suspension; type: ADME, organism-based; design: dose 10 mg/kg; settings: in vivo
[6] = Volume of distribution in rat at 10 mg/kg administered as suspension; type: ADME, organism-based; design: dose 10 mg/kg; settings: in vivo
[7] = Bioavailability in rat at 10 mg/kg administered as suspension; type: ADME, organism-based; settings: in vivo
[8] = Clearance in rat at 10 mg/kg administered as suspension; type: ADME, organism-based; design: dose 10 mg/kg; settings: in vivo
[9] = Human papillomavirus 16, W12-20850, 96 h

SMILES | IC50 [1, 9] | CC50 [2] | also measured
Cc1ccc2[nH]c3c(c2c1)CCCC3NC1Cc2ccccc2C1 (racemic) | 0.47 µM | 40 µM | 
C[C@H](N[C@H]1CCCc2c1[nH]c1ccc(Br)cc21)c1ccccc1 (racemic) |  | 22.9 µM | IC50 ([1]; w12-20850): 0.03 µM
Brc1ccc2[nH]c3c(c2c1)CCCC3NCCc1ccccc1 (racemic) | 0.41 µM | 11.4 µM | 
O=[N+]([O-])c1ccc2[nH]c3c(c2c1)CCCC3NCc1ccccc1 (racemic) | 0.23 µM | 20.4 µM | 
C[C@H](N[C@@H]1CCCc2c1[nH]c1ccc(Br)cc21)c1ccccc1 | 0.02 µM | 15 µM | 
FC(F)(F)c1ccc2[nH]c3c(c2c1)CCCC3NCc1ccccc1 (racemic) | 1 µM | > 100 µM | 
Fc1ccc2[nH]c3c(c2c1)CCCC3NCc1ccccc1 (racemic) | 1.6 µM | 35.9 µM | 
c1ccc(CNC2CCCc3c2[nH]c2ccccc32)cc1 (racemic) | 6.7 µM | 40.4 µM | 
COc1ccc2[nH]c3c(c2c1)CCCC3NCc1ccccc1 (racemic) | 7.6 µM | 57.9 µM | 
Cc1ccc2[nH]c3c(c2c1)CCCC3NCc1ccccc1 (racemic) | 1.9 µM | 21.3 µM | 
Brc1ccc2[nH]c3c(c2c1)CCCC3NCc1ccccc1 (racemic) | 0.15 µM | 18.8 µM | 
Cc1ccc2[nH]c3c(c2c1)CCC[C@H]3N[C@H](C)c1ccccc1 | 0.3 µM | 29 µM | 
Brc1ccc2c3c([nH]c2c1)C(NCc1ccccc1)CCC3 (racemic) | 11.1 µM | > 40 µM | 
Cc1ccc2[nH]c3c(c2c1)CCCC3NC(C)c1ccccc1 (racemic) | 0.54 µM | 40 µM | 
Cc1ccc2[nH]c3c(c2c1)CCCC3NCCc1ccccc1 (racemic) | 2.7 µM | 13.5 µM | 
C[C@H](N[C@H]1CCCc2c1[nH]c1ccc(Br)cc21)c1ccccc1 |  |  | IC50 ([1]; w12-20850): 2.85 µM; CC50 (HFF): 28.5 µM
Cc1ccc2[nH]c3c(c2c1)CCC[C@@H]3N[C@@H](C)c1ccccc1 | 6.7 µM | 36 µM | 
Brc1ccc2[nH]c3c(c2c1)CCCC3NC1Cc2ccccc2C1 (racemic) | 0.12 µM | 30.8 µM | 
Clc1ccc2[nH]c3c(c2c1)CCCC3NCc1ccccc1 (racemic) | 0.33 µM | 27.9 µM | 
C[C@@H](N[C@@H]1CCCc2c1[nH]c1ccc(Br)cc21)c1ccccc1 | 0.03 µM | 9 µM | selectivity ratio [3]: > 300; selectivity ratio [4]: > 500; half-life [5]: 4.4 h; Vd [6]: 1.9 L/kg; bioavailability [7]: 47%; clearance [8]: 13.4 mL/min/kg
Cc1ccc2[nH]c3c(c2c1)CCCC3NCCO (racemic) | > 30 µM | > 30 µM | 
COC(=O)c1ccc2[nH]c3c(c2c1)CCCC3NCc1ccccc1 (racemic) | 19.7 µM | 44.5 µM | 
CCNC1CCCc2c1[nH]c1ccc(C)cc21 (racemic) | > 20 µM | > 20 µM | 
Cc1ccc2[nH]c3c(c2c1)CCC[C@@H]3N[C@H](C)c1ccccc1 | 7.1 µM | 41 µM | 
C[C@@H](N[C@H]1CCCc2c1[nH]c1ccc(Br)cc21)c1ccccc1 | > 0.5 µM | > 30 µM | 
CC(C)(NC1CCCc2c1[nH]c1ccc(Br)cc21)c1ccccc1 (racemic) | 0.6 µM | > 40 µM | 
OCCNC1CCCc2c1[nH]c1ccc(Br)cc21 (racemic) | 6.83 µM | 20.1 µM | 
Cc1ccc2[nH]c3c(c2c1)CCC[C@H]3N[C@@H](C)c1ccccc1 | 0.2 µM | 29 µM | 
CCN(CC)CCNC1CCCc2c1[nH]c1ccc(C)cc21 (racemic) | > 30 µM | > 30 µM | 
Brc1cccc2c3c([nH]c12)C(NCc1ccccc1)CCC3 (racemic) | 11.4 µM | > 40 µM | 
